Assay results as given in US8088395B2, “Phytol derived immunoadjuvants and their use in vaccine formulations” (priority 2004, dated 2012).

Assays:
BALB/c mice [1] = test: Toxicity in terms of splenomegaly and local granuloma; format: in vivo
Description: with adjuvants: A, (PBS); B, […]; C, Incomplete Freund's adjuvant (IFA); D, phytol; E, Complete Freund's adjuvant (CFA); and F, reduced phytol (phytanol).
The efficacy and side effects (such as toxicity, carcinogenic properties, and autoimmunogenic properties) of phytol and reduced phytol or phytanol (H-phytol) as adjuvants were compared with those of other known adjuvants that serve as the gold standard. Groups of 8-12 week old and gender matched BALB/c mice (n=21) were injected intraperitoneally with phytol (25-50 μl=20-40 mg/ml injected vaccine formulation) to determine toxicity. Similar studies were done with reduced phytol (phytanol) using 11 BALB/c mice. […].

2C3 B-cell lymphoma = test: Induction of tumor-specific cytotoxic T cells (51Cr-release CTL assay); format: in vivo; settings: BALB/c mice, intraperitoneal adjuvant, live 2C3 tumor challenge, FIG. 8
Description: A number of mice (BALB/c mice) were divided into four groups of six mice each. Each group was treated with intraperitoneal injections of one of […] adjuvant preparations. The adjuvant preparations were selected from IFA, phytol, and phytanol. A control group was injected intraperitoneally with PBS. Five days after the initial injections, each of the mice was injected with a live tumor challenge (5×10^6 of 2C3 B-cell lymphoma). Splenocytes were obtained form the tumor-challenged mice at the eighth day after the initial injections. The collected splenocytes were stimulated with killed 2C3 cells in vitro for five days. Effector cells were harvested from this preparation after five days of incubation. The effector cells were used in the 51Cr-release cytotoxic T lymphocyte (CTL) assay according to the procedure published in Chakrabarti D. and Ghosh S. K.: Cellular Immunology 144:445-464, 1996; Santra S. and Ghosh S. K.: cancer Immunol. Immunotherpy, 44:291-300, 1997; Laxmanan S., Stuart G. W. and Ghosh S. K. Ghosh, Cancer Immunol. Immunotherapy, 50:437-444, 2001; So-Yon Lim and Swapan K. Ghosh, Immunology, 110:482-492, 2003.

BALB/c mice [2] = test: Toxicity (LD50) after intraperitoneal injection; format: in vivo; settings: mg/ml injected vaccine formulation
Description: The efficacy and side effects (such as toxicity, carcinogenic properties, and autoimmunogenic properties) of phytol and reduced phytol or phytanol (H-phytol) as adjuvants were compared with those of other known adjuvants that serve as the gold standard. Groups of 8-12 week old and gender matched BALB/c mice (n=21) were injected intraperitoneally with phytol (25-50 μl=20-40 mg/ml injected vaccine formulation) to determine toxicity. Similar studies were done with reduced phytol (phytanol) using 11 BALB/c mice. LD50 for phytol is 40 mg/ml and for phytanol >40 mg/ml. For comparison, equivalent concentrations/volumes of other Freund's adjuvants, a mineral oil pristane and a control (phosphate buffered saline) were tested for toxicity in terms of splenomegaly and local granuloma.

DNA = test: Autoimmune reactivity assessment (anti-DNA antibody response); format: in vivo, mice
Excerpt: In each set of experiments, groups of 5 mice were primed with an environmental antigen phthalate (Lim and Ghosh, Immunology, 110:482-492, 2003) as a conjugate (mg/ml) with keyhole limpet hemocyanin (KLH) in different adjuvants as shown in FIG. 5.

phthalate = test: Anti-phthalate antibody response by ELISA on phthalate-BSA coated plates; format: in vivo; settings: BALB/c mice primed intraperitoneally with phthalate-KLH emulsified in adjuvant, boosters at 10-day intervals, FIG. 6
Description: Experimental BALB/c mice (n=6) were grouped and primed intraperitoneally with phthalate-KLH conjugates emulsified in each adjuvant. Control groups of mice were immunized with phosphate buffered saline (PBS). Boosters were given at 10-day intervals. The mice were bled through retro-orbital veins five days after each immunization. (reference describing this type of experiments: So-Yon Lim and Swapan K. Ghosh, Immunology, 110:482-492, 2003)
ELISA was performed to assess anti-phthalate humoral responses on phthalate-BSA coated plates.

| SMILES | granuloma (BALB/c mice [1]; BALB/c mice, local granuloma) | splenomegaly (BALB/c mice [1]; BALB/c mice, spleens, FIGS. 3A-3F) | splenomegaly (BALB/c mice [1]; BALB/c mice, spleens, FIGS. 3A-3F, listed as Phytol) | induction of tumor-specific killer T cells (2C3 B-cell lymphoma) | LD50 (BALB/c mice [2]) [mg/mL] | anti-DNA response (autoimmune response) (DNA; mice primed with phthalate-KLH in the adjuvant, FIG. 5) | granuloma (BALB/c mice [1]; mouse, in vivo) | splenomegaly (BALB/c mice [1]; mouse, in vivo) | anti-phthalate humoral response (phthalate) | anti-DNA response (autoimmune response) (DNA; mouse, in vivo) |
| --- | --- | --- | --- | --- | --- | --- | --- | --- | --- | --- |
| C/C(=C\CO)CCC[C@H](C)CCC[C@H](C)CCCC(C)C [phytol] | milder than CFA | comparable splenomegaly | milder than CFA | induction of tumor-specific killer T cells | 40 | statistically insignificant anti-DNA response | – | – | – | – |
| CC(C)CCC[C@@H](C)CCC[C@@H](C)CCCC(C)CCO (stereo partly drawn) [phytanol, 3,7,11,15-tetramethyl-1-hexadecanol] | – | – | – | induction of tumor-specific killer T cells | > 40 | – | no granuloma | none | better than commonly used CFA/IFA and is as good as commercially available Ribi Adjuvant system (RAS) | statistically insignificant anti-DNA response |
